Values of other authors, collected in patent US11192954B2, “Compounds and methods for the treatment of TROP2 positive diseases” (BIO-THERA SOLUTIONS, LTD., priority 2017, dated 2021).

How the values were obtained:
[1] = tested on: multiple cancer cell lines; conditions: cited from earlier work
[2] = tested on: Lewis lung carcinoma and B-16 melanocarcinoma solid murine tumor models; conditions: mouse, in vivo; cited from earlier work

| Structure (SMILES) | Activity against multiple cancer cell lines [1] | Activity against murine tumors [2] |
| --- | --- | --- |
| COc1cc2cc(c1Cl)N(C)C(=O)C[C@H](OC(=O)C(C)C)[C@]1(C)O[C@@H]1[C@H](C)[C@@H]1C[C@@](O)(NC(=O)O1)[C@H](OC)/C=C/C=C(\C)C2 [Ansamitocin P3] | effective | – |
| COc1cc2cc(c1Cl)N(C)C(=O)C[C@H](OC(=O)[C@H](C)N(C)C(C)=O)[C@]1(C)O[C@H]1[C@H](C)[C@@H]1C[C@@](O)(NC(=O)O1)[C@H](OC)/C=C/C=C(\C)C2 [Maytansine] | – | significant inhibitory activity |
